According to patent US9387195B2, “Methods for treating diseases using isoindoline compounds” (Celgene Corporation, priority 2011, dated 2016):

Columns and labels:
keratinocyte cytokeratin = assay: pDC-keratinocyte co-culture with CpG-A stimulation, cytokeratin level (Example 16); assay type: cell-based, human; conditions: relative to Control BB2
Procedure: (§1) The Human pDC/HEKa Coculture involves stimulation with CpG-A oligodeoxynucleotide. CpG-A-stimulation would induce pDCs to secrete interferon-alpha (IFN-α) which in turn elicits increased expression of MxA protein from keratinocytes. HEKa were plated in 6-well plates at density of 1×10^5 cells/well and incubated overnight in a defined keratinocyte medium. The medium was removed in the next day and then 1.8×10^5 pDC cells, in defined pDC medium, were overlaid on the HEKa cells. Compound (II) was added to the medium to obtain final concentrations of 0.25 μM, 0.5 μM and 1 μM. One hour after the addition of Compound (II), CpG-A was added to each of the concentrations and then incubated overnight. Same samples from Example 15 were used here.
(§2) The cells were fixed and immunostained the co-cultures with antibodies to keratinocyte myxovirus resistance protein A (MxA) and Cytokeratin as follows using the ThermoScientific Cellomics High Content Screening (HCS) Readers using vHCS Scan Software.
(§3) Eighteen hours after the addition of Compound (II), cocultures were fixed for 30 minutes with BD fixation/permeabilization buffer, washed, and blocked with 2% normal goat serum/bovine serum albumin solution for an hour. Cocultures were then incubated overnight with primary antibodies to MxA and Cytokeratin. Cells were washed and incubated for an hour with Alexa anti-goat and anti-rabbit fluorescein (IgG1) or TRITC-conjugated (IgG) secondary antibodies. […] Cocultures were washed and incubated in 1X phosphate buffered saline (PBS) and plates scanned using Thermo Scientific ArrayScan VTI HCS Reader, a modular High Content Screening instrument designed for high-capacity automated fluorescence imaging and quantitative analysis of fixed and live cells. The output was analyzed using Cellomics Compartmental Analysis algorithm to quantitate fluorescence levels in the green and red channels. […] Mean fluorescence intensity levels of MxA and Cytokeratin of the samples were expressed as percentage of mean fluorescence intensity levels of MxA and cytokeratin of Control BB2. […]

IFN-α production [1] = assay: IFN-α ELISA, CpG-A stimulated human PBMCs or pDCs (Example 15); assay type: cell-based
Procedure: (§4) The IFN-α and TNF-α levels were measured by enzyme-linked immunoabsorbant assay (ELISA) obtained from R&D System, Minneapolis, Minn., known as Human IFN-alpha ELISA Kit (PBL Interferon Source, Cat #41100-1) and Human TNF-alpha Quantikine ELISA Kit (ThermoScientific, Cat # EH3TNFA5) respectively. […] Compounds were diluted with DMSO (PBMCs) or media (pDCs) from a 4 mM stock of each compound to obtain different concentrations. Human PBMCs or pDCs were pretreated with different concentrations of compounds for an hour prior stimulation. Cells were then stimulated with 1 μM (PBMCs) or 10 μM (PDCs) CpG-A ODN 2216 for 18 hours. The samples with Compound (II) (0.25 μM, 0.5 μM and 1 μM) are labeled as Examples B1-B3; the samples with Compound (I) (0.25 μM, 0.5 μM and 1 μM) are labeled as Examples B4-B6; the samples with CC-930 (1.0 μM, 2.0 μM and 3.0 μM) are labeled as Examples B7-B9; and the samples with chloroquine (0.5 μM, 1.0 μM and 2.0 μM) are labeled as Examples B10-B12. Keratinocytes of samples (Examples B1-B12) cultured in the presence of pDCs were stimulated with CpG-A oligonucleotide. Two control experiments were done. The first control experiment (Control BB1) was done with similar procedures mentioned-above but without CpG-A stimulation and without the addition of inhibitors. The second control experiment (Control BB2) was done with similar procedures mentioned-above but without the addition of inhibitors. Supernatant was collected after 18 hours. IFN-α and TNF-α levels were assayed by ELISA according to manufacturer's instructions.

keratinocyte MxA [2] = assay: pDC-keratinocyte co-culture with CpG-A stimulation, keratinocyte MxA level (Example 16); assay type: cell-based, human; conditions: for decrease in the keratinocyte MxA level: relative to Control BB2
Procedure: as §1, §2, §3

TNF-α production = assay: TNF-α ELISA, CpG-A stimulated human PBMCs or pDCs (Example 15); assay type: cell-based
Procedure: as §4

IFN-α production [3] = assay: IFN-α ELISA in CpG-A stimulated hPBMC (Example 18); assay type: cell-based, human; conditions: 1 μM CpG-A, 18 hours
Procedure: Human PBMCs (1×10^5 cells) were plated in 96-well plates (PBMCs) in RPMI media containing 10% FBS. Compounds were diluted with DMSO from a 4 mM stock of each compound to obtain different concentrations. Human PBMCs were pretreated with different concentrations of compounds for an hour prior stimulation. Cells were then stimulated with CpG-A ODN 2216 (1 μM) for 18 hours. […] The samples (Control E1 and Examples E2-E20) contained 1 μM CpG-A. Supernatant was collected after 18 hours. The IFN-α levels of samples were measured by the IFN-α ELISA obtained from PBL Interferon Source, Piscataway, N.J., known as Human IFN-alpha ELISA Kit. IFN-α levels of samples were assayed by the ELISA according to manufacturer's instructions. Inhibition of the production of IFN-α by individual compounds were determined in the CpG-A stimulated hPBMC cultures.

keratinocyte MxA [4] = assay: Human pDC/HEKa coculture with CpG-A stimulation, keratinocyte MxA level (Example 14); assay type: cell-based; conditions: relative to CpG-A stimulated Example A1
Procedure: as §1, with “CpG-A oligodeoxynucleotide 2216. The CpG-A stimulation” for “CpG-A oligodeoxynucleotide. CpG-A-stimulation”, “0.5 μM, 1” for “0.5”, “and 2” for “and 1”, “of these” for “of the”, “overnight.” for “overnight. Same samples from Example 15 were used here.”
as §2
Eighteen hours after the addition of Compound (II), cocultures were fixed for 30 minutes with BD fixation/permeabilization buffer, washed, and blocked with 2% normal goat serum/bovine serum albumin solution for an hour. Cocultures were then incubated overnight with primary antibodies to MxA and Cytokeratin. Cells were washed and incubated for an hour with Alexa anti-goat and anti-rabbit fluorescein (IgG1) or TRITC-conjugated (IgG) secondary antibodies. Nuclei were stained with DAPI or 4′,6-diamidino-2-phenylindole. Cocultures were washed and incubated in 1X phosphate buffered saline (PBS) and plates scanned using Thermo Scientific ArrayScan VTI HCS Reader, a modular High Content Screening instrument designed for high-capacity automated fluorescence imaging and quantitative analysis of fixed and live cells. The output was analyzed using Cellomics Compartmental Analysis algorithm to quantitate fluorescence levels in the green and red channels. Data was exported to Microsoft Excel worksheets. Mean fluorescence intensity levels of MxA and Cytokeratin of the samples were expressed as percentage of mean fluorescence intensity levels of MxA and cytokeratin of Example A1. Histograms were generated and statistical analysis was performed using GraphPad Prism v4.0 (GraphPad Software, Inc., San Diego, Calif.).
FIGS. 1-2 show the levels of keratinocyte MxA and cytokeratin of the samples averaged from four independent experiments relative to the keratinocyte MxA and cytokeratin levels of Example A1 with pDCs derived from separate donors. […]

cytokeratin = assay: Human pDC/HEKa coculture with CpG-A stimulation, cytokeratin level (Example 14); assay type: cell-based; conditions: 0.25-2 μM; relative to Example A1
Procedure: The Human pDC/HEKa Coculture involves stimulation with CpG-A oligodeoxynucleotide 2216. The CpG-A stimulation would induce pDCs to secrete interferon-alpha (IFN-α) which in turn elicits increased expression of MxA protein from keratinocytes. HEKa were plated in 6-well plates at density of 1×10^5 cells/well and incubated overnight in a defined keratinocyte medium. The medium was removed in the next day and then 1.8×10^5 pDC cells, in defined pDC medium, were overlaid on the HEKa cells. Compound (II) was added to the medium to obtain final concentrations of 0.25 μM, 0.5 μM, 1 μM and 2 μM. […]
as §2
Eighteen hours after the addition of Compound (II), cocultures were fixed for 30 minutes with BD fixation/permeabilization buffer, washed, and blocked with 2% normal goat serum/bovine serum albumin solution for an hour. […] Cocultures were washed and incubated in 1X phosphate buffered saline (PBS) and plates scanned using Thermo Scientific ArrayScan VTI HCS Reader, a modular High Content Screening instrument designed for high-capacity automated fluorescence imaging and quantitative analysis of fixed and live cells. […]

[5] = 0.25, 0.5 and 1 μM, relative to CpG-A stimulation (Control BB2), P<0.0001
[6] = 0.25, 0.5 and 1 μM, relative to CpG-A stimulation (Control BB2)
[7] = 1.0, 2.0 and 3.0 μM (Examples B7-B9), relative to Control BB2
[8] = Homo sapiens, PBMC, read-out: inhibition of the production of IFN-α

CCOc1cc(C(CS(C)(=O)=O)N2C(=O)c3cccc(NC(C)=O)c3C2=O)ccc1OC (single isomer, unassigned; (+)) [Compound (I), (+)-2-[1-(3-ethoxy-4-methoxyphenyl)-2-methylsulfonylethyl]-4-acetylaminoisoindoline-1,3-dione]
effect on the keratinocyte cytokeratin (keratinocyte cytokeratin): no significant effect | inhibition of the production of IFN-α (IFN-α production [1]; [5]): inhibited | ability to inhibit the production of the keratinocyte MxA, among the compounds tested (keratinocyte MxA [2]; 0.25, 0.5 and 1 μM (Examples B4-B6)): greatest ability to inhibit | inhibition of the production of TNF-α (TNF-α production; [6]): inhibited | inhibition of the production of IFN-α (IFN-α production [3]; 0.5 μM, versus Control E1): significant inhibition | inhibition of the production of IFN-α (IFN-α production [3]; 5 μM, versus Control E1): significant inhibition

O[C@H]1CC[C@H](Nc2ncc3nc(Nc4c(F)cc(F)cc4F)n([C@H]4CCOC4)c3n2)CC1 [CC-930, reference compound]
effect on the keratinocyte cytokeratin (keratinocyte cytokeratin): no significant effect | inhibition of the production of IFN-α (IFN-α production [1]; [7]): approximately 25% | decrease in the keratinocyte MxA level (keratinocyte MxA [2]; 1 μM, P<0.05): 32% | inhibition of the production of TNF-α (TNF-α production; [7]): approximately 25% | inhibition of the production of IFN-α (IFN-α production [3]; 10 μM, versus Control E1): inhibited

CCN(CC)CCCC(C)Nc1ccnc2cc(Cl)ccc12 (stereo not drawn) [Chloroquine, chloroquine]
inhibition at 1 µM (IFN-α production [1]; [8]): ~75% | inhibition at 2 µM (IFN-α production [1]; [8]): ~75% | inhibition at 2 µM (TNF-α production; Homo sapiens, PBMC, read-out: inhibition of the production of TNF-α): ~50% | inhibition of the production of IFN-α (IFN-α production [3]; 5 μM, versus Control E1): induced inhibition

CCOc1cc([C@@H](CS(C)(=O)=O)N2Cc3cccc(NC(=O)C4CC4)c3C2=O)ccc1OC [Compound (II), Cyclopropyl{2-[(1S)-1-(3-ethoxy-4-methoxyphenyl)-2-(methylsulfonyl)ethyl]-3-oxoisoindolin-4-yl}carboxamide]
effect on the keratinocyte cytokeratin (keratinocyte cytokeratin): no significant effect | inhibition of the production of IFN-α (IFN-α production [1]; [5]): inhibited | decrease in the keratinocyte MxA level (keratinocyte MxA [2]; 0.25, 0.5 and 1 μM (Examples B1-B3)): 13-15% | inhibition of the production of TNF-α (TNF-α production; [6]): inhibited | decrease in the keratinocyte MxA protein levels (keratinocyte MxA [4]; 0.25 μM): 19% | decrease in the keratinocyte MxA protein levels (keratinocyte MxA [4]; 0.5 μM): 39% | decrease in keratinocyte MxA levels (keratinocyte MxA [4]; 1 μM): 29% | decrease in keratinocyte MxA levels (keratinocyte MxA [4]; 2 μM): 40% | effect on the cytokeratin levels on the keratinocytes (cytokeratin): no effect | inhibition of the production of IFN-α (IFN-α production [3]; 0.5 μM, versus Control E1): significant inhibition | inhibition of the production of IFN-α (IFN-α production [3]; 5 μM, versus Control E1): significant inhibition

Nc1cccc2c1CN(C1CCC(=O)NC1=O)C2=O (stereo not drawn) [Lenalidomide, lenalidomide]
inhibition of the production of IFN-α (IFN-α production [3]; 10 μM, versus Control E1): did not affect

CCN(CC)CCCC(C)Nc1c2ccc(Cl)cc2nc2ccc(OC)cc12 (stereo not drawn) [Quinacrine, quinacrine]
inhibition of the production of IFN-α (IFN-α production [3]; 0.5 and 5 μM (Examples E19-E20)): inhibited

CCN(CCO)CCCC(C)Nc1ccnc2cc(Cl)ccc12 (stereo not drawn) [hydroxychloroquine]
inhibition of the production of IFN-α (IFN-α production [3]; 5 μM, versus Control E1): induced inhibition

O=C1CCC(N2C(=O)c3ccccc3C2=O)C(=O)N1 (stereo not drawn) [thalidomide]
inhibition of the production of IFN-α (IFN-α production [3]; 10 μM, versus Control E1): did not affect
